Test results taken from PubChem BioAssay (NCI).
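Exposure lasted 48 hours, with cells grown in 96-well plates and compounds tested at five concentrations. GI50 marks 50% less growth. TGI is the concentration that stops growth completely.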

Assays:
Experiment in all cases: NCI tumour cell line growth inhibition, 48 h
[1] = test system: PC-3 prostate
[2] = test system: HCC-2998 colon
[3] = test system: HS 578T breast
[4] = test system: MDA-N
[5] = test system: MDA-MB-435
[6] = test system: 786-0 renal
[7] = test system: BT-549 breast
[8] = test system: IGROV1 ovarian
[9] = test system: MDA-MB-231 breast
[10] = test system: TK-10 renal
[11] = test system: DLD-1 colon
[12] = test system: KM20L2 colon
[13] = test system: XF 498 CNS
[14] = test system: DMS 273 small cell lung
[15] = test system: SNB-78 CNS
[16] = test system: DMS 114 small cell lung
[17] = test system: HOP-18 NSCLC
[18] = test system: M19-MEL melanoma
[19] = test system: P388 leukemia

Compound | TGI [1] [µM] | TGI [2] [µM] | TGI [3] [µM] | TGI [4] [µM] | TGI [5] [µM] | TGI [6] [µM] | TGI [7] [µM] | TGI [8] [µM] | TGI [9] [µM] | TGI [10] [µM] | TGI [11] [µM] | TGI [12] [µM] | TGI [13] [µM] | TGI [14] [µM] | TGI [15] [µM] | TGI [16] [µM] | TGI [17] [µM] | TGI [18] [µM] | TGI [19] [µM] | GI50 [12] [µM]
COc1ccc(C)cc1NC(=S)N/N=C/c1ccco1 | > 100 | > 100 | > 100 | 68.7 | 92.2 | > 100 | > 100 | > 100 |  |  |  |  |  |  |  |  |  |  |  | 
CCOC(=O)C1=C(C)N(Cc2ccccc2)C2(O)C=CC(=O)C3C(=O)N(c4ccccc4)C(=O)C132 (stereo not given) | 6.88 | 3.2 | 34 | 12.5 | 3.86 | 3.27 |  | 4.32 | 12.1 | 9.33 |  |  |  |  |  |  |  |  |  | 
C=C1C(=O)OC2/C=C(\CO)C3OC3C3OC3(C)CC(OC(=O)/C(=C/C)COC(C)=O)C12 (stereo not given) | 27 | 37.1 | 20.4 | 13 | 7.88 | 5.36 | 3.48 | 29.5 | 19.5 | 11.1 | 2.53 | 20.5 | 4.54 | 10.5 | 13.4 | 13.2 | 21.6 | 3.94 |  | 
COc1cccc(/C=N/[N+](C)(C)C)c1O | > 10 | > 10 | > 10 | > 10 | > 10 | > 10 | > 10 | > 10 | > 10 | > 10 |  |  |  |  |  |  |  |  |  | 
O=C1Nc2ccccc2C1(O)Cc1ccccn1 (stereo not given) | > 100 | > 100 | > 100 | > 100 | > 100 | > 100 | > 100 | > 100 | > 100 | > 100 |  |  |  |  |  |  |  |  |  | 
O=c1c2cc([N+](=O)[O-])ccc2[nH]n1Cc1ccccc1Cl | > 100 | > 100 | > 100 | > 100 | > 100 | > 100 |  | > 100 | > 100 | 99.9 |  |  |  |  |  |  |  |  |  | 
CSc1nc2c(ncn2C2OC(CO)C(O)C(O)C2O)c(=O)n1C (stereo not given) |  | > 100 |  |  |  |  |  | > 100 |  |  | > 100 | > 100 | > 100 | > 100 | > 100 | > 100 | > 100 | > 100 | > 100 | 
COc1cc2c(cc1OCCCN1CCOCC1)N=C[C@@H]1CCCN1C2=O | 72.4 |  | > 100 | 97.5 | 31 | > 100 | > 100 |  | > 100 | > 100 |  |  |  |  |  |  |  |  |  | 
Nc1nc2cc(COc3ccc(C(=O)O)cc3)ccc2nc1-c1ccccc1 | > 10 | > 10 | > 10 | > 10 | > 10 |  |  | > 10 | > 10 | > 10 |  |  |  |  |  |  |  |  |  | 
O=C1C=CC2(C=C1)O[C@H](CCc1ccccc1)[C@@H](CCc1ccccc1)O2 | > 100 |  | > 100 | > 100 | 76.1 | > 100 | > 100 | > 100 | > 100 | > 100 |  |  |  |  |  |  |  |  |  | 
O=C(O)C(C1NCCS1)N1C(=O)c2ccccc2C1=O (stereo not given) | > 100 |  | > 100 | > 100 | > 100 | > 100 | > 100 | > 100 | > 100 | > 100 |  |  |  |  |  |  |  |  |  | 
O=C1Sc2sc(=S)sc2SC1c1ccccc1 (stereo not given) |  | > 100 |  |  |  |  |  | > 100 |  |  | > 90.9 | > 100 | > 79.1 | > 100 | > 75.8 | > 100 | > 100 | > 100 | > 67.2 | 
Nc1nc(N)c2ncn(Cc3ccccc3CO)c2n1 | > 100 |  | > 100 |  | > 100 | > 100 | > 100 | > 100 | > 100 | > 100 |  |  |  |  |  |  |  |  |  | 
Cc1ccnn1CCc1ccc(Cl)cc1Cl | > 100 |  | > 100 | > 100 | > 100 |  | 31.3 | > 100 | > 100 | 48.1 |  |  |  |  |  |  |  |  |  | 
Cc1ccc(C(=O)c2[nH]c(NCc3ccccc3)c(C(=S)Nc3ccccc3)c2N)cc1 | 26.1 | 2.65 |  | 12.3 | 10.2 | 18.7 | 20.3 | 19.9 | 19.6 | 23.3 |  |  |  |  |  |  |  |  |  | 
COc1cc2c(/C=C3/C(=O)Nc4cc(C)c(O)cc43)c(Cl)[nH]c2cc1C | 21.9 |  | 7.35 |  | 1.22 | 8.91 | 45.3 | 18.8 | 8.99 | 7.22 |  |  |  |  |  |  |  |  |  | 
C=C1C(=O)OC2/C=C(CO)/C=C\C3OC3(C)CC(OC(=O)/C(C)=C/COC(C)=O)C12 (stereo not given) | 21.6 | 28.8 | 11.8 | 4.13 | 4.32 | 4.36 | 3.25 | 23.9 | 9.13 | 14 | 2.49 | 17 | 6.47 | 4.3 | 23.4 | 10.9 | 22.1 | 4.15 |  | 
CS(C)(=O)=Nn1c(=O)n2n(c1=O)[C@H]1CC[C@@H]2C1 | > 100 |  | > 100 | > 100 | > 100 |  |  | > 100 | > 100 | > 100 |  |  |  |  |  |  |  |  |  | 
O=C(c1ccsc1)c1nccc2c1cnc1ccccc12 | > 100 |  | 70.6 | > 100 | > 100 | > 100 | > 100 | 17.1 | > 100 | > 100 |  |  |  |  |  |  |  |  |  | 
COc1ccc2[nH]c(=O)cc(C)c2c1[N+](=O)[O-] |  | > 100 |  |  |  | > 100 |  | > 100 |  | > 100 | > 100 | > 100 | > 100 | > 100 | > 100 | > 100 |  | > 100 |  | 
COc1cnc2oc3ccc(O)cc3c2c1-c1ccccc1 | > 100 | 92.1 | > 100 |  | > 100 | > 100 | > 100 |  |  | > 100 |  |  |  |  |  |  |  |  |  | 
O=C(N/N=C/c1cc(Cl)cc(Cl)c1[O-])c1ccccc1O.O=C(N/N=C/c1cc(Cl)cc(Cl)c1[O-])c1ccccc1O.[Mn+2] |  | 13.5 |  |  |  |  |  |  |  | 16.2 |  |  |  |  |  |  |  |  |  | 2.78
COc1ccc(C(=O)c2[nH]c(Nc3cc(C)ccn3)c(C(=S)Nc3ccccc3)c2N)cc1 | > 100 | 37.4 |  | 56.2 | 59.6 | 49.7 | 42.5 | 42 | 44.5 | 61.5 |  |  |  |  |  |  |  |  |  | 
CC1=CC2=C(C=O)C(=O)[C@](C)(O)[C@@H](O)C2=CO1 |  | > 61.5 |  |  |  |  |  | > 100 |  |  | > 100 |  | > 100 | > 90.2 | > 100 |  | > 92.7 | > 73.5 | 35.5 | 
CC(C)(C(=O)N(C(=O)N1CCN(c2ccccc2)CC1)S(=O)(=O)c1ccccc1)c1ccc(Cl)cc1 | 70.3 | > 100 | > 100 | > 100 | > 100 | > 100 | > 100 |  | > 100 | > 100 |  |  |  |  |  |  |  |  |  | 
COc1cc(C2c3cc4c(cc3[C@@H](Nc3cnc5ccccc5c3)C3COC(=O)[C@H]23)OCO4)cc(OC)c1O (stereo not given in full) |  | 2.24 |  |  |  |  |  | 10.4 |  |  | 3.69 |  | 4.66 | 1.34 | > 100 | 1.82 | 2.65 | 3.28 | 0.374 | 
